The text below walks through data of US20240226057A1, “NEW USE OF MONENSIN” (MAST PHARMA AB, priority 2021, published 2024).

Each structure is given as a SMILES string. Read-outs that look alike come from different tables or passages of the source.

The test system of data set [1] is Bone marrow-derived mast cells (BMMCs). The experiment in a line: Trypan blue positivity of treated mast cells. Format: cell-based, mouse.
The next data set has as its system Caspase 3 & 7. The experiment in a line: Caspase 3 & 7 activation in mast cells.
For data set [2], the system named is human fibroblast cells (HFL-1). As to the kind of experiment: Cytotoxicity against human fibroblast cells (PrestoBlue). Particulars: 10 μM, 48 h.
Data set [3] has as its system Bone marrow-derived mast cells (BMMCs). As to the kind of experiment: BMMC viability, screening and kinetic analysis (Presto Blue / resazurin reduction). Particulars: BMMCs, Presto Blue. (In general: Resazurin is reduced to fluorescent resorufin, in cell work by metabolically active cells.)
In data set [4] the test system is mouse bone-marrow-derived mast cells (BMMCs). The experiment in a line: Annexin V/DRAQ7 cell death assessment in BMMCs. Format: cell-based. The settings on record: bafilomycin A 20 nM in combination with monensin, BMMCs. How it is done:
(§1) To assess cell death, cells were stained with Annexin V and either DRAQ7™ or Via-Probe™ Red Nucleic Acid Stain and analyzed by flow cytometry. To probe pH in acidic organelles, cells were incubated with LysoSensor Blue DND-167, followed by flow cytometry. The relative intracellular pH changes were assessed using the cell-permeable pH-sensitive fluorescent indicator (BCFL-AM). Intracellular calcium changes were assessed using Fluo-4/AM.
To analyze the mechanism by which monensin acts on mast cells, Annexin V/DRAQ7 staining was first adopted to assess the type of cell death induced by monensin, the gating is shown in FIG. 2A. […] Necrotic/late apoptotic (Annexin V^+/DRAQ7^+) cells were also seen, but to a lesser extent (right panel).
BMMCs were treated with 1 μM monensin for 12 and 24 h, followed by Annexin V/DRAQ7 staining to measure cell death. MCs were gated into cells having high and low maturity, as assessed by SSC analysis for granularity (A). The right panels depict the quantification of apoptotic (Annexin V^+/DRAQ7^−) and necrotic (Annexin V^+/DRAQ7^+) cell death in the respective populations (n=3). (B) BMMCs (0.5×10^6 cells) were developed from WT (FIG. 4B) or serglycin^−/− (SG^−/−) mice (data not shown) and were treated with monensin 0-10 μM for 24 h, followed by cell death assessment (Annexin V/DRAQ7 staining). BMMCs (C; 0.5×10^6 cells) or human skin MCs (0.1×10^6 cells; D) were treated with monensin or bafilomycin A 0-10 μM for 30 min, followed by staining with LysoSensor Blue DND-167 (a lysosome probe sensitive to decreased pH) (n=4). BMMCs (0.5×10^6 cells) were treated with either monensin or bafilomycin A (20 nM) alone or in combination (E), followed by measurement of cell death (Annexin V/DRAQ7 staining). (F) BMMCs were treated with monensin or bafilomycin A for 4 and 24 h, followed by assessment of cytosolic pH (n=2). […] To further assess the impact of the secretory granules on monensin-induced cell death, it was evaluated whether the absence of serglycin, a granule-restricted proteoglycan, affects the response to monensin. Both WT and serglycin^−/− BMMCs were sensitive to cell death induced by monensin.

Another data set deals with BMMCs. The experiment in a line: Granule acidity, LysoSensor Blue DND-167 staining of BMMCs. It counts as cell-based, mouse. The settings on record: 0-10 μM for 30 min. On the procedure:
as §1
BMMCs were treated with 1 μM monensin for 12 and 24 h, followed by Annexin V/DRAQ7 staining to measure cell death. MCs were gated into cells having high and low maturity, as assessed by SSC analysis for granularity (A). The right panels depict the quantification of apoptotic (Annexin V^+/DRAQ7^−) and necrotic (Annexin V^+/DRAQ7^+) cell death in the respective populations (n=3). (B) BMMCs (0.5×10^6 cells) were developed from WT (FIG. 4B) or serglycin^−/− (SG^−/−) mice (data not shown) and were treated with monensin 0-10 μM for 24 h, followed by cell death assessment (Annexin V/DRAQ7 staining). […] To further assess the impact of the secretory granules on monensin-induced cell death, it was evaluated whether the absence of serglycin, a granule-restricted proteoglycan, affects the response to monensin. […]

The next data set relates to mMCP-6. The experiment in a line: Translocation of granule protease mMCP-6 into the cytosolic fraction. Format: cell-based.
Data set [5] deals with Bone marrow-derived mast cells (BMMCs). The settings on record: mouse.

Turning to `CC(=O)OC[C@H]1O[C@@H]([S-])[C@H](OC(C)=O)[C@@H](OC(C)=O)[C@@H]1OC(C)=O.CCP(CC)CC.[Au+]` [Auranofin], the “Viability % (TB) (10 μM)” value in data set [1] came out at 100%. For the same compound, in the data set with Caspase 3 & 7, the “Caspase 3 & 7 activation” value is reported as “+” and the “Caspase-3 & 7 activation” value is reported as “caspase-3 & 7 positivity”. The “Cytotoxicity at 10 μM on HSFib (HFL-1) cells” value in data set [2] is given as “exhibited cytotoxicity”. Moreover, the “Viability % (1 μM)” value in data set [3] (1 μM) is given as 83%. In data set [3] (10 μM, 24 hours), the “Viability % (10 μM)” value is reported as 1%.
`CO/C1=C\C(C)=C\[C@@H](C)[C@@H](O)[C@@H](C)C/C(C)=C/C=C/[C@H](OC)[C@@H]([C@@H](C)[C@@H](O)[C@H](C)[C@@]2(O)C[C@@H](O)[C@H](C)[C@@H](C(C)C)O2)OC1=O` [Bafilomycin A]: the “Extent of cell death induced by monensin when combined with bafilomycin A” value in data set [4] is on record as “significant reduction”. Besides, the “LysoSensor Blue DND-167 staining / granule acidity, BMMCs” value in the data set with BMMCs is “profound reduction”. The “Monensin-induced translocation of mMCP-6 to the cytosol in cells treated with bafilomycin A” value with mMCP-6 was “abrogated”.
For `CCN(CC)CCOc1ccc(C(=C(Cl)c2ccccc2)c2ccccc2)cc1` [Clomiphene], the “Viability % (TB) (10 μM)” value in data set [1] was 22%. The “Viability % (1 μM)” value in data set [5] (1 µM) stood at 99%. In addition, the “Viability % (10 μM)” value in data set [5] (24 h, 10 µM) is 76%. Moreover, in the data set on Caspase 3 & 7, the “Caspase 3 & 7 activation” value is listed as “−” and the “Caspase-3 & 7 activation” value is “absence of a positive signal”.
